{"source": "patent US10155742B2", "about": "“Halofuginol derivatives and their use in cosmetic and pharmaceutical compositions” (President and Fellows of Harvard College, priority 2012, dated 2018)", "key": {"[1]": {"test_system": "CD4+ T cell, CD8+ T cell, and B220+ B cell activation", "settings": "from PCT/US08/09774; cited from earlier work"}, "[2]": {"test_system": "Th17-driven multiple sclerosis model", "settings": "Sundrud et al. 2009; cited from earlier work"}, "[3]": {"test": "Anti-HF ELISA of intracellular HF levels", "type": "in vitro ADME, mouse", "method": "MEFs were incubated with the indicated concentration of HF in the presence or absence of 2 mM proline for 2 hours, washed twice in cold PBS, and lysed in 1% NP40. Lysates were then tested for HF levels in comparison to a standard curve using known concentrations of HF with an anti-HF antibody based ELISA assay (see Examples). […] Similar results were obtained in three separate experiments.\nPolyclonal anti-HF antibody was raised by immunizing rabbits with KLH coupled to an HF derivative (MAZ1356, FIG. 1) containing a linker attached to the quinazolinone and terminated by a primary amino group. Antibody was affinity purified using MAZ1356 linked to NHS-agarose. For the ELISA assay (FIG. 17), MAZ1356 was coupled to 96-well Reacti-bind Plates (Pierce). After binding, plates were blocked with 10% goat serum in PBS/0.2% Tween-20 (PBST). […] Captured antibody was quantitated using TMB based colorimetric detection (Pierce), and a standard curve for HF concentration fitted from the colorimetric data. […] To determine HF concentration in cells, 8 μl of cleared lysate (or control buffer) was incubated with anti-HF antibody in MAZ1356 bound wells, and captured antibody detected and quantitated as described above. HF concentration was then determined by fitting colorimetry results with cell samples to a standard curve of HF concentration. […]"}, "[4]": {"test_system": "prolyl-tRNA charging in the RRL system", "test": "tRNA charging in RRL (14C Pro or 35S Met incorporation into tRNA)", "settings": "FIG. 2D"}, "P. falciparum (Dd2)": {"test_system": "P. falciparum (Dd2)", "test": "In vitro P. falciparum viability assay with excess proline", "type": "cell-based, Plasmodium falciparum", "settings": "Dd2 strain in red blood cells, relative to unmodified RPMI, FIG. 23", "method": "The activity of halofuginone and amodiaquine as inhibitors of P. falciparum growth was tested in erythrocytes in RPMI with or without excess amino acids as indicated, and IC50 values were normalized to IC50 values obtained under standard conditions using unmodified RPMI (numbers in bold). The absolute IC50 values for halofuginone and amodiaquine for RPMI are reported in parentheses. Fold amino acid indicated (e.g., “5×”) is relative to the concentration of the respective amino acid in RPMI. Fold concentration of D-Pro and L-Orn are relative to L-Pro.\nIn vitro potency against P. falciparum (DD2) was assessed using a modified version of the method of Plouffe and coworkers (Plouffe et al. Proc. Natl. Acad. Sci. USA 105:9059-64 (2008)). Parasites were cultured in the presence of drug in RPMI (Sigma) containing 4.16 mg/ml Albumax in a total volume of 50 μl at a 2.5% hematocrit and an initial parasitemia of 0.3% in black Greiner GNF clear-bottom plates. Cultures were incubated 72 hr at 37° C. under […], 4% CO2 and 3% O2. At the end of the incubation, SYBR green was added to a dilution of 1:10,000 and plates were stored overnight (or until ready to be read) at −80° C. Just before reading, plates were centrifuged at 700 rpm and fluorescence was read using 480 nm excitation and 530 nm emission frequencies. Compound concentrations that inhibit parasite replication reduce the fluorescence intensity of SYBR green bound to parasite DNA."}}}
{"smiles": "O=C(C[C@H]1NCCC[C@@H]1O)Cn1cnc2cc(Br)c(Cl)cc2c1=O", "note": "(racemic) [HF, 7-bromo-6-chloro-3-[3-(3-hydroxy-2-piperidinyl)-2-oxopropyl]-4(3H)-quinazolinone]", "values": [{"measurement": "concentration that generally inhibits CD4+ T cell, CD8+ T cell, and B220+ B cell activation", "setting": "[1]", "result": "20 to 40", "unit": "nM"}, {"measurement": "development of disease", "setting": "[2]", "result": "inhibits"}, {"measurement": "effect of proline addition on intracellular accumulation of HF", "setting": "[3]; 2 mM proline, 2 hours, FIG. 17", "result": "not affected"}, {"measurement": "absolute HF concentration inside cells", "setting": "[3]; MEFs incubated with 20 nM HF for 2 hours, packed cell volume estimated as 4 μl", "result": "~800", "unit": "nM"}, {"measurement": "incorporation of 14C-Pro into tRNA", "setting": "[4]", "result": "inhibited"}, {"measurement": "fold increase of effective IC50 on addition of 5× proline", "setting": "P. falciparum (Dd2)", "result": "roughly 7 fold"}]}
